The record followed here is patent US11427574B2, “Compounds for treating Rac-GTPase mediated disorder” (Children's Medical Center Corporation, priority 2015, dated 2022).

The subject of experiment [1] is SEM cells. In words: Proliferation assay in SEM leukemia cells. The following applies: read-out: IC50, inhibition of proliferation. It is filed as cell-based. The procedure: Dose Dependent Inhibition of Proliferation The 100 compounds selected from the initial in silico screen were assayed for inhibition of proliferation in two leukemia cell lines, SEM and P12 by Cell Titer Glo. The cells for the proliferation assay were spun down and re-suspended. The cell suspension was then divided and the compound to be tested added in desired concentrations and subsequently plated. Following an incubation period, the Cell Titer Glo reagent (Promega CellTiter 96® Aqueous Non-Radioactive Cell Proliferation Assay) was added and allowed to incubate. The absorbance is subsequently measured at 490 nm using a plate reader. Each compound was analyzed for its effects on cell proliferation.
The lead compound, i.e. Compound 1, was analyzed for its effect on cell proliferation at various doses on three different leukemia cell lines: SEM, P12, and Loucy. In order to quantitate the percentage inhibition of cell proliferation, Cell Titer Glo analysis was completed as described in Example 2 above.
FIGS. 3a-3c show three graphs illustrating the dose dependent inhibition of proliferation of Compound 1 in SEM, P12, and Loucy cells as measured by MTS assay. […] Compound 1 was further analyzed for its effect on cell apoptosis and cell death using a flow based assay using Annexin V staining. […]

Experiment [2] has as its system P12 cell line. In words: Annexin V flow assay for apoptosis and cell death, P12. The following applies: Annexin V staining. It is filed as cell-based. An excerpt: FIGS. 3a-3c show three graphs illustrating the dose dependent inhibition of proliferation of Compound 1 in SEM, P12, and Loucy cells as measured by MTS assay. […] Compound 1 was further analyzed for its effect on cell apoptosis and cell death using a flow based assay using Annexin V staining.

Turning to `CCc1ccc(CN(C)C(=O)CCc2nnc(CCc3c[nH]c4ccccc34)o2)nc1` (racemic) [Compound 1], in experiment [1], the IC50 stood at 43.8 µM. Besides, the “cell apoptosis and cell death” value in experiment [2] was “caused cells apoptosis and cell death”.
